Numbers after ± are expanded uncertainties.
Test: molar heat capacity at constant pressure
Details: 100 kPa, Liquid, Flow calorimetry

O [water]
Details	molar heat capacity at constant pressure [J/K/mol]
298.15 K	75.66 ± 0.16
303.15 K	75.57 ± 0.16
308.15 K	75.54 ± 0.16
313.15 K	75.5 ± 0.16
318.15 K	75.47 ± 0.16
323.15 K	75.45 ± 0.16
328.15 K	75.45 ± 0.16
333.15 K	75.47 ± 0.16
338.15 K	75.5 ± 0.16
343.15 K	75.57 ± 0.16
348.15 K	75.66 ± 0.16
353.15 K	75.77 ± 0.16
358.15 K	75.9 ± 0.16
363.15 K	76.02 ± 0.16

From the NIST ThermoML archive (doi:10.1021/acs.jced.7b00483)
